This note sets out measurements from US12643859B2, “Pyridyl oxycarboxylic acid oxime derivative and preparation method therefor, weeding composition and application thereof” (Qingdao Kingagroot Chemical Compound Co., Ltd., priority 2018, dated 2026).

The subject of the first assay is Monocotyledonous and dicotyledonous weed seeds and main crop seeds. The experiment in a line: Post-emergence test experiment (Table 3, 1000 g a.i./ha). Type of assay: in vivo. The note with it: Digitaria sanguinalis, 3 weeks in greenhouse, fresh weight inhibition. Here is the method: The above described growth inhibition rate is fresh weight inhibition rate.
Post-emergence test experiment: Monocotyledonous and dicotyledonous weed seeds and main crop seeds (i. e. wheat, corn, rice, soybean, cotton, oilseed, millet and sorghum.) were put into a plastic pot loaded with soil. Then covered with 0.5-2 cm soil, the seeds were allowed to grow in good greenhouse environment. The test plants were treated at 2-3 leaf stage 2 weeks after sowing. The test compounds of the invention were dissolved with acetone respectively, then added with tween-80, and using 1.5 liters per hectare of an emulsible concentrate of methyl oleate as a synergist, and diluted by certain amount of water to certain concentration. The solution was sprayed to the plants with a sprayer. Then the plants were cultured for 3 weeks in the greenhouse, and the experiment result of weed controlling effect was listed in tables 3-4.
For `CC(Oc1nc(F)c(Cl)c(N)c1Cl)C(=O)ON=C(Br)c1ccc(C#N)cc1` (centres unmarked) [Compound 86], the “Activity level (growth inhibition rate) Digitaria sanguinalis” value is 5 (Level 5: the growth inhibition rate is greater than 85%).

For the compound `CC(Oc1nc(F)c(Cl)c(N)c1Cl)C(=O)ON=C(c1ccccc1)c1cccc(Cl)c1` (centres unmarked) [Compound 79], the “Activity level (growth inhibition rate) Digitaria sanguinalis” value is 5 (Level 5: the growth inhibition rate is greater than 85%).

On to `COc1ccc(CNC(=O)C(C)=NOC(=O)C(C)Oc2nc(F)c(Cl)c(N)c2Cl)cc1` (centres unmarked) [Compound 103], for which the “Activity level (growth inhibition rate) Digitaria sanguinalis” value is recorded as 5 (Level 5: the growth inhibition rate is greater than 85%).

Take `C=COC(=O)C(=NOC(=O)C(C)Oc1nc(F)c(Cl)c(N)c1Cl)C(=O)N(C)c1ccccc1` (centres unmarked) [Compound 106]: the “Activity level (growth inhibition rate) Digitaria sanguinalis” value is reported as 5 (Level 5: the growth inhibition rate is greater than 85%).

On to `CC(Oc1nc(F)c(Cl)c(N)c1Cl)C(=O)ON=C(c1ccccc1)c1ccc(F)cc1` (centres unmarked) [Compound 83], for which the “Activity level (growth inhibition rate) Digitaria sanguinalis” value was 5 (Level 5: the growth inhibition rate is greater than 85%).

The assay is the same for the next values; noted with them: Echinochloa crusgalli, 3 weeks in greenhouse, fresh weight inhibition.
On to `CC(Oc1nc(F)c(Cl)c(N)c1Cl)C(=O)ON=C(Br)c1ccc(C#N)cc1` (centres unmarked) [Compound 86], for which the “Activity level (growth inhibition rate) Echinochloa crusgalli” value was 5 (Level 5: the growth inhibition rate is greater than 85%).

Take `CC(Oc1nc(F)c(Cl)c(N)c1Cl)C(=O)ON=C(c1ccccc1)c1cccc(Cl)c1` (centres unmarked) [Compound 79]: the “Activity level (growth inhibition rate) Echinochloa crusgalli” value is recorded as 5 (Level 5: the growth inhibition rate is greater than 85%).

As for `COc1ccc(CNC(=O)C(C)=NOC(=O)C(C)Oc2nc(F)c(Cl)c(N)c2Cl)cc1` (centres unmarked) [Compound 103], the “Activity level (growth inhibition rate) Echinochloa crusgalli” value is given as 5 (Level 5: the growth inhibition rate is greater than 85%).

On to `C=COC(=O)C(=NOC(=O)C(C)Oc1nc(F)c(Cl)c(N)c1Cl)C(=O)N(C)c1ccccc1` (centres unmarked) [Compound 106], for which the “Activity level (growth inhibition rate) Echinochloa crusgalli” value is reported as 5 (Level 5: the growth inhibition rate is greater than 85%).

With `CC(Oc1nc(F)c(Cl)c(N)c1Cl)C(=O)ON=C(c1ccccc1)c1ccc(F)cc1` (centres unmarked) [Compound 83], the “Activity level (growth inhibition rate) Echinochloa crusgalli” value is 5 (Level 5: the growth inhibition rate is greater than 85%).

The assay is the same for the next values; noted with them: Galium spurium, 3 weeks in greenhouse, fresh weight inhibition.
For the compound `CC(Oc1nc(F)c(Cl)c(N)c1Cl)C(=O)ON=C(Br)c1ccc(C#N)cc1` (centres unmarked) [Compound 86], the “Activity level (growth inhibition rate) Galium spurium” value is given as 5 (Level 5: the growth inhibition rate is greater than 85%).

With `CC(Oc1nc(F)c(Cl)c(N)c1Cl)C(=O)ON=C(c1ccccc1)c1cccc(Cl)c1` (centres unmarked) [Compound 79], the “Activity level (growth inhibition rate) Galium spurium” value was 5 (Level 5: the growth inhibition rate is greater than 85%).

Regarding `COc1ccc(CNC(=O)C(C)=NOC(=O)C(C)Oc2nc(F)c(Cl)c(N)c2Cl)cc1` (centres unmarked) [Compound 103], the “Activity level (growth inhibition rate) Galium spurium” value was 5 (Level 5: the growth inhibition rate is greater than 85%).

For the compound `C=COC(=O)C(=NOC(=O)C(C)Oc1nc(F)c(Cl)c(N)c1Cl)C(=O)N(C)c1ccccc1` (centres unmarked) [Compound 106], the “Activity level (growth inhibition rate) Galium spurium” value is on record as 5 (Level 5: the growth inhibition rate is greater than 85%).

For `CC(Oc1nc(F)c(Cl)c(N)c1Cl)C(=O)ON=C(c1ccccc1)c1ccc(F)cc1` (centres unmarked) [Compound 83], the “Activity level (growth inhibition rate) Galium spurium” value is listed as 5 (Level 5: the growth inhibition rate is greater than 85%).

The same assay, now with this note: Leptochloa chinensis, 3 weeks in greenhouse, fresh weight inhibition.
`CC(Oc1nc(F)c(Cl)c(N)c1Cl)C(=O)ON=C(Br)c1ccc(C#N)cc1` (centres unmarked) [Compound 86]: the “Activity level (growth inhibition rate) Leptochloa chinensis” value is listed as 5 (Level 5: the growth inhibition rate is greater than 85%).

In the case of `CC(Oc1nc(F)c(Cl)c(N)c1Cl)C(=O)ON=C(c1ccccc1)c1cccc(Cl)c1` (centres unmarked) [Compound 79], the “Activity level (growth inhibition rate) Leptochloa chinensis” value was 5 (Level 5: the growth inhibition rate is greater than 85%).

Take `COc1ccc(CNC(=O)C(C)=NOC(=O)C(C)Oc2nc(F)c(Cl)c(N)c2Cl)cc1` (centres unmarked) [Compound 103]: the “Activity level (growth inhibition rate) Leptochloa chinensis” value was 5 (Level 5: the growth inhibition rate is greater than 85%).

As to `C=COC(=O)C(=NOC(=O)C(C)Oc1nc(F)c(Cl)c(N)c1Cl)C(=O)N(C)c1ccccc1` (centres unmarked) [Compound 106], the “Activity level (growth inhibition rate) Leptochloa chinensis” value is listed as 5 (Level 5: the growth inhibition rate is greater than 85%).

In the case of `CC(Oc1nc(F)c(Cl)c(N)c1Cl)C(=O)ON=C(c1ccccc1)c1ccc(F)cc1` (centres unmarked) [Compound 83], the “Activity level (growth inhibition rate) Leptochloa chinensis” value is 5 (Level 5: the growth inhibition rate is greater than 85%).

Still in this assay, the particulars now being: Monochoria Vaginalis, 3 weeks in greenhouse, fresh weight inhibition.
Turning to `CC(Oc1nc(F)c(Cl)c(N)c1Cl)C(=O)ON=C(Br)c1ccc(C#N)cc1` (centres unmarked) [Compound 86], the “Activity level (growth inhibition rate) Monochoria Vaginalis” value is given as 5 (Level 5: the growth inhibition rate is greater than 85%).

For the compound `CC(Oc1nc(F)c(Cl)c(N)c1Cl)C(=O)ON=C(c1ccccc1)c1cccc(Cl)c1` (centres unmarked) [Compound 79], the “Activity level (growth inhibition rate) Monochoria Vaginalis” value is 5 (Level 5: the growth inhibition rate is greater than 85%).

Take `COc1ccc(CNC(=O)C(C)=NOC(=O)C(C)Oc2nc(F)c(Cl)c(N)c2Cl)cc1` (centres unmarked) [Compound 103]: the “Activity level (growth inhibition rate) Monochoria Vaginalis” value was 5 (Level 5: the growth inhibition rate is greater than 85%).

As for `C=COC(=O)C(=NOC(=O)C(C)Oc1nc(F)c(Cl)c(N)c1Cl)C(=O)N(C)c1ccccc1` (centres unmarked) [Compound 106], the “Activity level (growth inhibition rate) Monochoria Vaginalis” value was 5 (Level 5: the growth inhibition rate is greater than 85%).

As to `CC(Oc1nc(F)c(Cl)c(N)c1Cl)C(=O)ON=C(c1ccccc1)c1ccc(F)cc1` (centres unmarked) [Compound 83], the “Activity level (growth inhibition rate) Monochoria Vaginalis” value was 5 (Level 5: the growth inhibition rate is greater than 85%).

Staying with this assay, now noted: Murdannia triquetra, 3 weeks in greenhouse, fresh weight inhibition.
With `CC(Oc1nc(F)c(Cl)c(N)c1Cl)C(=O)ON=C(Br)c1ccc(C#N)cc1` (centres unmarked) [Compound 86], the “Activity level (growth inhibition rate) Murdannia triquetra” value is 5 (Level 5: the growth inhibition rate is greater than 85%).

Take `CC(Oc1nc(F)c(Cl)c(N)c1Cl)C(=O)ON=C(c1ccccc1)c1cccc(Cl)c1` (centres unmarked) [Compound 79]: the “Activity level (growth inhibition rate) Murdannia triquetra” value is recorded as 5 (Level 5: the growth inhibition rate is greater than 85%).

`COc1ccc(CNC(=O)C(C)=NOC(=O)C(C)Oc2nc(F)c(Cl)c(N)c2Cl)cc1` (centres unmarked) [Compound 103]: the “Activity level (growth inhibition rate) Murdannia triquetra” value is given as 5 (Level 5: the growth inhibition rate is greater than 85%).

As to `C=COC(=O)C(=NOC(=O)C(C)Oc1nc(F)c(Cl)c(N)c1Cl)C(=O)N(C)c1ccccc1` (centres unmarked) [Compound 106], the “Activity level (growth inhibition rate) Murdannia triquetra” value was 5 (Level 5: the growth inhibition rate is greater than 85%).

Regarding `CC(Oc1nc(F)c(Cl)c(N)c1Cl)C(=O)ON=C(c1ccccc1)c1ccc(F)cc1` (centres unmarked) [Compound 83], the “Activity level (growth inhibition rate) Murdannia triquetra” value is reported as 5 (Level 5: the growth inhibition rate is greater than 85%).

The same assay, now with this note: Setaria viridis, 3 weeks in greenhouse, fresh weight inhibition.
Consider `CC(Oc1nc(F)c(Cl)c(N)c1Cl)C(=O)ON=C(Br)c1ccc(C#N)cc1` (centres unmarked) [Compound 86], for which the “Activity level (growth inhibition rate) Setaria viridis” value was 5 (Level 5: the growth inhibition rate is greater than 85%).

For the compound `CC(Oc1nc(F)c(Cl)c(N)c1Cl)C(=O)ON=C(c1ccccc1)c1cccc(Cl)c1` (centres unmarked) [Compound 79], the “Activity level (growth inhibition rate) Setaria viridis” value was 5 (Level 5: the growth inhibition rate is greater than 85%).

For the compound `COc1ccc(CNC(=O)C(C)=NOC(=O)C(C)Oc2nc(F)c(Cl)c(N)c2Cl)cc1` (centres unmarked) [Compound 103], the “Activity level (growth inhibition rate) Setaria viridis” value is listed as 5 (Level 5: the growth inhibition rate is greater than 85%).

Consider `C=COC(=O)C(=NOC(=O)C(C)Oc1nc(F)c(Cl)c(N)c1Cl)C(=O)N(C)c1ccccc1` (centres unmarked) [Compound 106], for which the “Activity level (growth inhibition rate) Setaria viridis” value is given as 5 (Level 5: the growth inhibition rate is greater than 85%).

Take `CC(Oc1nc(F)c(Cl)c(N)c1Cl)C(=O)ON=C(c1ccccc1)c1ccc(F)cc1` (centres unmarked) [Compound 83]: the “Activity level (growth inhibition rate) Setaria viridis” value was 5 (Level 5: the growth inhibition rate is greater than 85%).
